Experimental data reported in US6448256B1, “Antibiotic prodrugs” (University of Massachusetts, priority 1999, dated 2002).
≈ marks a conversion by molar mass, not a printed value. Where “and” joins values, the source holds several entries; their conditions need not be identical. Identical values can stand only once. Like-named read-outs stand apart in the source and are kept apart here.

How the values were obtained:
[1] = Plasma pharmacokinetics after intravenous administration to mice; assay type: in vivo; details: for half-life: mouse, plasma, 25 mg/kg
Description: (d) Elimination halfife and apparent volume of distribution. An appropriate dose of each agent (the maximum permitted by the results of the above dose/toxicity studies) is injected via the tail vein to a series of mice (e.g., 12). At specific times following injection (e.g., 10, 20, 30, 45, 90, and 150 minutes), mice (e.g., a pair) are restrained in DecapiCones and decapitated, and their blood collected individually by exsanguination into a sterile test tube.
The blood samples are centrifuged to yield clear plasma (yield: 0.4-0.6 ml per mouse). Approximately 0.2 ml of the plasma sample are used for HPLC analysis, using conditions established herein for quantitation of the compound. The individual plasma levels for each time point are averaged, and the data are analyzed to estimate Vd and half-life by established methods (Gibaldi, M. and D. Perrier. Pharmacokinetics. Marcel Dekker, Inc., New York, 1975).
Solutions of Val-B-EMAU in saline were next injected into the tail veins of mice at a dose of 25 mg/kg body weight. Animals were sacrificed at various times after dosing, and plasma was isolated and subjected to HPLC analysis.
Each value plotted in FIG. 3 represents the average of four measurements, each in a different animal.

[2] = Prodrug conversion in mouse plasma in vitro (HPLC); assay type: in vitro ADME
Description: (§1) The conversion rate of prodrugs can be measured by first establishing a reverse phase HPLC method for the detection of both prodrug and drug in a biological sample such as plasma or serum. A stock solution of prodrug, usually in saline, is diluted 1:5 in animal plasma or saline. […] If necessary, the sample can be thawed in a 37° C. water bath. Aliquots of the diluted sample are taken at 15, 30, 45, 60, 90, 120, and 180 minutes. Longer time points are usually needed for saline solutions because the rates of spontaneous hydrolysis are much longer than for enzyme-catalyzed hydrolysis. The aliquots are analyzed at a 1:10 dilution using HPLC, and the fraction of prodrug which has been converted at each time point calculated.
(§2) The rate of formation of the drug and the rate of decay of the prodrug had doubling and half-life times, respectively, of about 30 minutes. In contrast, the estimated half-life of Val-B-EMAU in physiological saline at 37° C. was greater then 5000 hours. The mechanism for the decomposition of Val-B-EMAU by plasma is presumed to involve esterases in the circulation.
(§3) To further define the conversion rate of Val-B-EMAU (4a), the prodrug was incubated in 80% mouse plasma.

E. fecalis = experiment: MIC against E. fecalis; assay type: cell-based; details: for MIC: Table 6, read-out: MIC E. fecalis
Description: (§4) To further investigate the antibacterial and/or DNA pol III inhibitory activity of various drug compounds, various ester-containing moieties N-linked to the EMAU core were produced as described in Example 1. These prodrugs were assayed for inhibition of B. subtilis DNA pol III and antibiotic activity against a number of bacteria.
(§5) The minimal inhibitory concentrations (MICs) of the four N3-substituted agents and EMAU were determined for B. subtilis (BS), methicillin-sensitive and resistant S. aureus (SA & MRSA), vancomycin-sensitive and resistant E. fecalis (EF& VREF), vancomycin-resistant E. fecium (VREF*), and E. coli (EC) as a Gram-negative control.

S. aureus [3] = experiment: Bactericidal activity (killing) against S. aureus; assay type: cell-based; details: 2, 4, and 8× MIC, killing continued for 24 hours
B. subtilis = experiment: MIC against B. subtilis; assay type: cell-based; details: for MIC: Bacillus subtilis, Table 6, read-out: MIC B. subtilis
Description: as §4, §5

[4] = test system: S. aureus (methicillin-sensitive Smith strain); experiment: ip/ip mouse protection against lethal S. aureus infection; assay type: in vivo, mice; parameters: mice protected from death: dose or concentration left out as unconfirmed; details: for animals protected from death: 10 mg/kg, ten animals
Description: Step 1: Screening—Each candidate prodrug is screened for activity in an ip/ip S. aureus protection model. Candidates that display efficacy equivalent to that of HB-EMAU and HB-IMAU are selected for advanced pharmacokinetic analysis and application in the more relevant mouse thigh model of infection.
The efficacy of the propyl derivatives was tested against murine staphylococcal infection in vivo. A simple “ip/ip” system was used, in which 20 gram mice (10 each) were injected ip (intraperitoneally) with a lethal dose (2.3×10^7 CFU) of the methicillin-sensitive Smith strain of S. aureus. The mice were then immediately injected ip with the antibiotic agent as a 1:9 mixture of DMSO:peanut oil. Vancomycin was used as the positive control drug.
Both hydroxybutyl compounds were tested at 10 mg/kg in the mouse protection experiment against lethal S. aureus infection described in Example 4 above.

B. subtilis DNA pol III = B. subtilis DNA pol III (Bacillus subtilis, UniProt P13267); experiment: Inhibition of B. subtilis DNA pol III (Ki); assay type: biochemical
Description: as §4
The competitive inhibitor constants (Ki) of selected EMAU compounds were determined with three different pol Ills: the pol III enzyme from Bacillus subtilis (BS pol III), and the pol III enzymes of the clinically relevant pathogens, Enterococcus fecalis (EF pol III) and Staphylococcus aureus (SA pol 111).

[5] = Plasma pharmacokinetics after oral administration to mice; assay type: in vivo
Description: (e) Uptake from subcutaneous (sc), intraperitoneal (ip), and oral (Po) routes, Oral dosing can be performed by gavage with a small stomach tube to DecapiCone-restrained animals. […] At specific times following administration (e.g., 15, 30, 60, 90, 150 and 240 minutes), two mice are sacrificed and their plasma samples prepared and analyzed by HPLC as described above in (d). Following decapitation, the site of drug application in each animal's carcass is dissected and inspected visually for evidence of precipitation.
Each value plotted in FIG. 4 is an average of two measurement, each in a different animal.

S. aureus [6] = experiment: MIC against S. aureus (methicillin-sensitive); assay type: cell-based; details: for MIC: Staphylococcus aureus
Description: as §4, §5

Solubility in water = assay type: physicochemical; details: 25° C.
Source text: The prodrug 3-(L-valylbutyl)-EMAU (Val-B-EMAU, 4a) was synthesized as a hydrochloride. The structure was confirmed by NMR. The compound had high solubility in water. […] Two different synthesis methods were used.

S. aureus [7] = experiment: Mouse thigh infection model; assay type: in vivo, mice; details: ip in saline, 40 mg/kg every four hours
Source text: The mouse thigh infection model has been pioneered and used by Craig and colleagues (Craig, W. A., Redington, J. and S. C. Ebert (1991) J. Antimicr. Chemother. 27:Suppl C, 29-40; Leggett, J. E., Ebert, S., Fantin, B. and W. A. Craig (1991) Scand. J. Inf. Dis. 74:179-184). It represents a rational, flexible, cost-effective, and reproducible experimental approach for predicting the efficacy of a bacterial infection in a human patient. It is particularly useful in the present invention, because it is adaptable to the use of clinically relevant strains of Staphylococcus and Enterococcus.
Mice are made neutropenic to render them susceptible to infection with a wide variety of bacteria. […] The infected thigh of each animal is homogenized in sterile saline, and the bacterial concentration in the homogenate is determined by dilution and plating. […]
Testing can be carried out as follows. […] Treatment with the test agent and the positive control agent (vancomycin) is initiated at 2 hours post-infection, using a route (Po, ip, or sc), schedule, and dosing regimen determined by the agent's in vitro potency and specific pharmacokinetic properties.
The compounds are given by ip injection of 0.05 ml of a saline solution. […] Results are expressed as the log reduction in bacterial growth as a fraction of that in vehicle-treated animals.

E. fecium = experiment: MIC against E. fecium; assay type: cell-based; details: Table 2
Description: as §4

[8] = test system: vancomycin-resistant E. fecium; experiment: MIC against vancomycin-resistant E. fecium (VRE, VREF*); assay type: cell-based; details: Table 2, vancomycin-resistant E. fecium
Description: as §4, §5

MRSA = experiment: MIC against methicillin-resistant S. aureus strain MRSA / MRSA1; assay type: cell-based; details: Table 2
Description: as §4, §5

E. coli = experiment: MIC against E. coli (Gram-negative control); assay type: cell-based; details: Table 2
Description: as §4, §5

MRSA2 = experiment: MIC against methicillin-resistant S. aureus strain MRSA2; assay type: cell-based; details: Table 2
Description: as §4, §5

[9] = Prodrug stability in physiological saline; assay type: physicochemical
Description: as §1, §2, §3

[10] = Table 1, read-out: Ki B. subtilis pol III
[11] = Table 6, read-out: Ki, inhibition constant vs. B. subtilis DNA pol III

B. subtilis DNA pol III, sequence (P13267 whole entry): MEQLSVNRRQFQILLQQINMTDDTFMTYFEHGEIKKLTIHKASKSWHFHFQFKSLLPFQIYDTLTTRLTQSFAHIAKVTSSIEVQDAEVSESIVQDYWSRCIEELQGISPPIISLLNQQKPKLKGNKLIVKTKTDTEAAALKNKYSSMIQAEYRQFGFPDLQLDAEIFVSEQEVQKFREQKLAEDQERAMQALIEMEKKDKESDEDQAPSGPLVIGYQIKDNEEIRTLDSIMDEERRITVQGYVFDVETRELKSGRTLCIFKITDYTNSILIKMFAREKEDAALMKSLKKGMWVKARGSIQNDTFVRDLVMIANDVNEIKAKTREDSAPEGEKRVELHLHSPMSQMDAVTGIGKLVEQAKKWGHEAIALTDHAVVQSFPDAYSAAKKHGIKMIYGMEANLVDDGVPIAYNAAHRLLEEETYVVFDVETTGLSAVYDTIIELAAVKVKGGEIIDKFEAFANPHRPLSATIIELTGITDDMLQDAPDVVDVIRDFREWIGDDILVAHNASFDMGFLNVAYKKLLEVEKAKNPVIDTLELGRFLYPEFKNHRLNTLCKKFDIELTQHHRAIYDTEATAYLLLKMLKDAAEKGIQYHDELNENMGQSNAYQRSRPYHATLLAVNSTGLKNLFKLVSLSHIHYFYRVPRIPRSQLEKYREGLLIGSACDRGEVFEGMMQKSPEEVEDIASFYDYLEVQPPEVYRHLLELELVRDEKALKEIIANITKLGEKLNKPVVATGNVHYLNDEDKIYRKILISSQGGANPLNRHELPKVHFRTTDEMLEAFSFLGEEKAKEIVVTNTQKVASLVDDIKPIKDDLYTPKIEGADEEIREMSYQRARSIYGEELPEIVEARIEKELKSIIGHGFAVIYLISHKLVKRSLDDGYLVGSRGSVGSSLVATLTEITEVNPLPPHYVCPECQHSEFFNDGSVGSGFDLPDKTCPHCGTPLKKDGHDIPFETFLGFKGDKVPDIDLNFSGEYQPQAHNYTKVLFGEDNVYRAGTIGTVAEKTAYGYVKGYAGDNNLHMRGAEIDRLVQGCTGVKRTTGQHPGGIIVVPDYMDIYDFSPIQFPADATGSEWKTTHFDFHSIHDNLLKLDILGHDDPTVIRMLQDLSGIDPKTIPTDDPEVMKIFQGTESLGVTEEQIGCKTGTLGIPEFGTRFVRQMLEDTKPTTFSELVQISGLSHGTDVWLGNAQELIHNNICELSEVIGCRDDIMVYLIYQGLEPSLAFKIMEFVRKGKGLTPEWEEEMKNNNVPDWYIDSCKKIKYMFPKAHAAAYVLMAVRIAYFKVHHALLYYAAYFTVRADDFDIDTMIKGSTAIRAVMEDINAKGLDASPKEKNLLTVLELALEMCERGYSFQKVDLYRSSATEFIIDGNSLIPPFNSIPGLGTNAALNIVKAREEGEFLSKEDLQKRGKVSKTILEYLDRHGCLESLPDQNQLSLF

Which “time at which HB-EMAU concentration peaked” value ([1]; after iv Val-B-EMAU 25 mg/kg (FIG. 1)) does the source give for `CCc1cc(Nc2cc(=O)n(CCCCO)c(=O)[nH]2)ccc1C` [HB-EMAU] here?
The value was “about 20 minutes”.

What about the half-life ([1]; iv, after iv Val-B-EMAU 25 mg/kg (FIG. 1), read-out: half life of HB-EMAU) of the same molecule?
Its half-life is ~43 min.

And the half-life ([1]; iv, after iv Val-B-EMAU (4a) 25 mg/Kg (FIG. 3), average of four measurements, read-out: elimination half-life of HB-EMAU)?
Its half-life is 15.6 min.

What about the “doubling time of formation of the drug” value ([2]; mouse) of the same molecule?
The value was “about 30 minutes”.

And the MIC (E. fecalis)?
Its MIC is 6 µg/mL (≈ 18.9 µM).

What about the “bactericidal for S. aureus” value (S. aureus [3]) of the same molecule?
The value was “bactericidal”.

What about the MIC (B. subtilis) of the same molecule?
The MIC was < 3.1 µg/mL.

What about the “animals protected from death” value ([4]; four day experiment) of the same molecule?
The value was “all ten animals”.

And the Ki (B. subtilis DNA pol III; [10])?
Its Ki is 190 nM.

And the Ki (B. subtilis DNA pol III; [11])?
The Ki was 180 nM.

And the “area under the curve for HB-EMAU, estimated” value ([5]; HB-EMAU administered directly)?
The value was 0.1%.

What about the “peak concentration of HB-EMAU” value ([5]; mice, after oral VB-EMAU 100 mg/Kg) of the same molecule?
Its value is 11.2 μM and 3.5 μg/ml.

And the “plasma HB-EMAU at four hours after administration” value ([5]; mice, after oral Val-B-EMAU (4a) 100 mg/Kg)?
Its value is “no detectable”.

What about the “time at which plasma level of HB-EMAU peaked” value ([5]; mice, after oral Val-B-EMAU (4a) 100 mg/Kg in physiological saline (FIG. 4)) of the same molecule?
Its value is 60 min.

What about the MIC (S. aureus [6]; read-out: MIC S. aureas) of the same molecule?
Its MIC is 6 µg/mL (≈ 18.9 µM).

What about the solubility (Solubility in water) of the same molecule?
The solubility was ~30 µg/mL (≈ 94.5 µM).

Which protection of mice ([4]; 20 mg/kg, positive control) does the source give for `CN[C@H](CC(C)C)C(=O)N[C@H]1C(=O)N[C@@H](CC(N)=O)C(=O)N[C@H]2C(=O)N[C@H]3C(=O)N[C@H](C(=O)N[C@H](C(=O)O)c4cc(O)cc(O)c4-c4cc3ccc4O)[C@H](O)c3ccc(c(Cl)c3)Oc3cc2cc(c3O[C@@H]2O[C@H](CO)[C@@H](O)[C@H](O)[C@H]2O[C@H]2C[C@](C)(N)[C@H](O)[C@H](C)O2)Oc2ccc(cc2Cl)[C@H]1O` [vancomycin, reference compound] here?
Its protection of mice is “protected all mice”.

What about the “mice protected from death” value ([4]; control drug, four day experiment) of the same molecule?
Its value is “all ten mice”.

And the “log reduction in S. aureus proliferation compared with control thighs” value (S. aureus [7])?
Its value is 2-4 log.

With `Cc1ccc(Nc2cc(=O)n(CCCCO)c(=O)[nH]2)cc1I` [HB-IMAU] as the molecule, how does the MIC (E. fecalis) read?
The MIC was 6 µg/mL (≈ 14.4 µM).

And the “bactericidal for S. aureus” value (S. aureus [3])?
The value was “bactericidal”.

What about the MIC (B. subtilis) of the same molecule?
The MIC was < 3.1 µg/mL.

What about the “animals protected from death” value ([4]; four day experiment) of the same molecule?
The value was “nine of ten animals”.

What about the Ki (B. subtilis DNA pol III; [11]) of the same molecule?
The Ki was 220 nM.

What about the MIC (S. aureus [6]; read-out: MIC S. aureas) of the same molecule?
Its MIC is 6 µg/mL (≈ 14.4 µM).

What does the source list for `CCc1cc(Nc2cc(=O)n(CCCCOC(=O)[C@@H](N)C(C)C)c(=O)[nH]2)ccc1C` [Val-B-EMAU, 3-(L-valylbutyl)-EMAU]?
MIC E. fecium (E. fecium): 33 μ/ml; half-life ([1]; intravenous, tail vein, 25 mg/kg in saline (FIG. 1), read-out: half life of Val-B-EMAU in plasma): 34 min; half-life ([2]; 80% mouse plasma, 37° C. (FIG. 2), read-out: prodrug half-life): 37.8 min; half-life ([2]; mouse plasma, 37° C., HPLC, read-out: half-life of decay of the prodrug): ~30 min; MIC VRE [8]: 8 μ/ml; MIC E. fecalis (E. fecalis; Table 2): 17 μ/ml; MIC MRSA (MRSA): 33 μ/ml; MIC B. subtilis (B. subtilis; Table 2): 4 μ/ml; MIC E. coli (E. coli): >33 μ/ml; MIC MRSA2 (MRSA2): 33 μ/ml; half-life ([9]; 37° C., read-out: estimated half-life in physiological saline): > 208 days; half-life ([9]; b125, read-out: half-life in physiological saline): 18.8 to 20.8 days; Ki (B. subtilis DNA pol III; [10]): 530 nM; Ki (B. subtilis DNA pol III; Table 2, prodrugs having the EMAU core, read-out: Ki B. subtilis DNA Pol III): 530 nM; MIC (S. aureus [6]; Table 1, read-out: MIC S. aureus): < 20 µg/mL; MIC S. aureus (S. aureus [6]; Table 2): 17 μ/ml; solubility (Solubility in water): > 10000 µg/mL
